Values of other authors, collected in patent publication US20230338329A1, “C[…] COMPOSITION AND METHOD OF MANUFACTURING” (priority 2022, published 2023).

Conditions: hydrophilic-lipophilic balance value

Row | Compound | HLB
1 | polyoxyethylene sorbitan monooleate | 15
2 | Sorbitan monooleate [Span 80] | 4.9
3 | alkyl phenyl polyoxyethylene ether | 14.5
4 | CCCCCCCCCCCCOS(=O)(=O)[O-].[Na+] [sodium lauryl sulfate] | 40
